Laboratory results taken from patent publication US12582652B2, “3-(ethoxydifluoromethyl)-6-(5-fluoro-6-(2,2,2-trifluoroethoxy)pyridin-3-yl)-[1,2,4]triazolo[4,3-a]pyrazine as an ion channel modulator” (Praxis Precision Medicines, Inc., priority 2022, dated 2026).
“Also recorded” adds a separate entry of the source.

Experiments:
male CD-1 mice = assay: Spontaneous locomotor activity (sLMA) test
Protocol: Male CD-1 mice, 6-weeks old, were obtained from Vital River (Beijing, China). The average body weight was 25-35 g at the time the experiments were carried out. The mice were housed in groups of 3-5 under controlled conditions (temperature: 20-26° C.; humidity: 40-70%; air exchange rate: 10-15 cycles/hour; 12:12 light-dark cycle with lights on at 5:00 a.m.). Food and water were available ad libitum. The mice were acclimated to these conditions for 6 days before the start of the studies.
Dosing solutions were prepared on each experiment day. […] All solutions were protected from light. Samples from dosing solutions were stored at 4° C. Both compound and vehicle were dosed at 10 ml/kg.
The sLMA test was carried out over two days. 5 of 10 mice from each treatment group were tested on each day. All animals were marked on the tail with a permanent marker and weighed. Mice were randomly assigned into one of the four treatment groups. Animals were acclimated to the test room at least 30 minutes before the start of the experiment.
Possible side effects, such as overt sedation, were recorded just before the start of the sLMA test.
Each mouse was automatically tracked with overhead cameras using a 1-minute sampling window in an isolated chamber. Spontaneous locomotor activity was then analyzed offline using the Animal Behavior Video Tracking Analysis System (Ji Liang Software Technology Co., Ltd., Shanghai, China).
Locomotor status was defined as >2 mm of movement in every 200 ms (Frame-rate recorded was 20 frames/second. Locomotor status was identified in every 4 frame-to-frame interval. The accumulated shift of tracking spots that exceeded 2 mm in every 4 frame intervals was identified as a locomotor epoch). Traveling distance was calculated automatically from all the locomotion epochs and analyzed.
All mice were anesthetized with CO2. Then, terminal plasma and brain tissue samples were collected from animals in the drug treatment groups. 500 μL whole blood was collected via cardiac puncture and placed in tubes with 10 μL EDTAK2. The tubes were then placed in wet ice until centrifuged at 2000 g for 5 minutes at 4° C. The supernatant plasma was pipetted into Eppendorf tubes.
All statistical analyses were conducted using GraphPad Prism 7.0. Data are presented as mean±s.e.m., and p<0.05 was regarded as statistically significant.
Dose-response and concentration-response curves for plasma and brain were fitted for each end-point using GraphPad Prism. From these fitted curves, TD50 and TC50 values were calculated.

Hcn1 DEE mouse model = assay: Pentylenetetrazole (PTZ) induced seizure, Hcn1 model; type: in vivo
Protocol: Pentylenetetrazole (PTZ), a GABA receptor antagonist, can be used to create a common, chemically-induced seizure model, a model of generalized seizure.
Mice were acclimated to experimental area for minimum 30 minutes before experimentation. All experiments were performed between 10:00 am and 12:30 pm. The treatment compounds and PTZ were always prepared fresh.
Mice were randomly assigned either to different doses of Compound 1 (10 mg/kg, 1 mg/kg, or 0.1 mg/kg) or a vehicle control containing 0.5% methylcellulose and 0.2% tween 80, and dosed via oral gavage (p.o). Compound 1 and the vehicle control were administered 60 minutes before the injection of PTZ.
PTZ (100 mg/kg) was dissolved in saline and administered subcutaneously (s.c) to the experimental mice. The latency to full tonic-clonic seizure with hind limb extension was measured. The animals were sacrificed either at the time of hind limb extension or 40 minutes after PTZ administration if no hind limb extension was recorded.
Data were analyzed using a Mantel-Cox log-rank test. Brain tissue and plasma were collected from some mice for each dose of Compound 1 at the PTZ endpoint for PK analysis.

With `CCOC(F)(F)c1nnc2cnc(-c3cnc(OCC(F)(F)F)c(F)c3)cn12` [Compound 1, 3-(ethoxydifluoromethyl)-6-(5-fluoro-6-(2,2,2-trifluoroethoxy)pyridin-3-yl)-[1,2,4]triazolo[4,3-a]pyrazine] the “effect on locomotor function” value (male CD-1 mice; 10 mg/kg) was “no effect on locomotor function”, the “total traveling distance in 30-minute sLMA test” value (male CD-1 mice; 20 and 40 mg/kg p.o.) was “significantly reduced; also recorded: reductions in the distance moved” and the “sLMA distance moved, dose-response” value (male CD-1 mice; Compound 1 10-40 mg/kg po) was “dose-dependent reductions in distance moved”. For the same compound, the “sLMA TC50 in brain (total)” value (male CD-1 mice; brain) was 1899 ng/g, the “sLMA TC50 in brain (free)” value (male CD-1 mice; brain, free) was 69.7 nM and the “Tolerability (sLMA) TD50” value (male CD-1 mice; dose reducing sLMA by 50%) was 44 mg/kg. For the same compound, the “Tolerability (sLMA) TC50 (free brain)” value (male CD-1 mice; free brain concentration) was 69.7 nM, the “sLMA TC50 in plasma (total)” value (male CD-1 mice; plasma) was 1.553 µg/mL and the “PI (Plasma)” value (male CD-1 mice; plasma TC50 (sLMA) / plasma EC50 (MES), free concentrations) was 17.3. For the same compound, the “sLMA TC50 in plasma (free)” value (male CD-1 mice; plasma, free) was 308.9 nM and the “protection from hindlimb extension (FIG. 14E)” value (Hcn1 DEE mouse model) was “robust anticonvulsant activity”.
